What was measured:
[1] = system: skin fissures (open cuts); test: topical treatment of skin fissures at finger tips; type: in vivo, human; details: 10% oil-in-water cream twice daily, person
Procedure: A subject, having two skin fissures (open cuts) 2-3 mm long at the finger tips, extending from the hyponychia, topically applied twice daily lactobionic acid 10% oil-in-water cream to one fissure for one week. The other fissure was treated with a vehicle control.

[2] = antioxidant property, hydroquinone test method; type: physicochemical; details: oil-in-water cream, 2% hydroquinone, test substance 0.4 M, room temperature, 5 days
Text: (§1) An antioxidant may be defined as a substance capable of preventing or inhibiting oxidation. […] The antioxidant property is readily determined by using any one of the following test methods: prevention or retardation of air oxidation of (a) anthralin, (b) hydroquinone, or (c) banana peel. A freshly prepared anthralin solution or cream is bright yellow, and an air oxidized one is brownish or black. A hydroquinone solution or cream is colorless or white color, and an air oxidized one is brownish or black. A freshly peeled banana peel is light yellow in color and an oxidized one ranges in color from tan, dark tan, brown to brownish black.
Antioxidant property of an oligosaccharide aldonic acid may also be determined by utilizing hydroquinone test method as follows. Hydroquinone also known as 1,4-dihydroxybenzene is a white powder, and a composition containing hydroquinone without a suitable antioxidant is chemically unstable even at room temperature. For example, hydroquinone 2% in an oil-in-water cream changed in color from white to grey within 2 hours, and the cream became light brown within 48 hours and dark brown after 72 hours at room temperature.

[3] = system: contact dermatitis or erythema; test: topical treatment of facial erythema caused by glycolic acid cream; type: in vivo, human; details: 5% partially neutralized cream, three applications over 24 hour period, person; control side persisted
Text: A subject, developed contact dermatitis or erythema on their face after topical applications of 20% unneutralized glycolic acid cream. They applied 5% partially neutralized lactobionic acid cream on the left side of their face and a control cream on the right side of their face.

[4] = system: circular wounds 0.5 mm in depth; test: healing of circular 4 mm biopsy punch wounds on forearm; type: in vivo, human; details: 2% in distilled water
Text: A sterile 4 mm skin biopsy punch was used to make two circular wounds 0.5 mm in depth on alcohol-swabbed left forearm of a healthy subject. The wounds were swabbed dry with cotton balls. A control solution containing 0.9% sodium chloride in distilled water was applied to one circular wound, and a test solution containing 2% lactobionic acid in distilled water was applied to the other circular wound. Both wounds were covered with 3M Tegaderm tapes for five days. […] The erythema disappeared from both skin sites at the end of nine days.

[5] = antioxidant property, anthralin test method; type: physicochemical
Text: as §1
Antioxidant property of an oligosaccharide aldonic acid may be determined by utilizing anthralin test method as follows.
Anthralin also known as dithranol is a yellowish powder, and a composition containing anthralin without a suitable antioxidant is chemically unstable even at room temperature. For example, anthralin 0.05% in an oil-in-water cream changed in color from yellow to gray within 24 hours at room temperature, and the cream became brownish within 48 hours. Under anhydrous condition, anthralin 0.05% ointment prepared from white petrolatum 2 parts and mineral oil 1 part by weight changed in color from bright yellow to grayish yellow within 24 hours, and the ointment became brownish after 12 days at room temperature.
Based on the above observations, an oil-in-water cream containing 0.4% anthralin with or without a known antioxidant was used as a positive or vehicle control.

[6] = gel matrix formation on evaporation of an aqueous solution at room temperature; type: physicochemical
Text: In contrast to an alpha hydroxyacid and polyhydroxyacid, an oligosaccharide aldonic acid can form a gel matrix when its aqueous solution is evaporated at room temperature. The transparent gel obtained retains certain amount of water forming a clear gel matrix. The amount of water retention depends on individual oligosaccharide aldonic acid. Examples of gel matrix preparations are provided below.
In one example, a gel matrix can be formed when aqueous solution comprising an oligosaccharide aldonic acid is evaporated at room temperature. The transparent gel thus obtained retains certain amount of water forming a clear gel matrix. The amount of water retention depends on individual oligosaccharide aldonic acid. For example, maltobionic acid 1 g in a beaker was dissolved in water 1 ml, and the solution thus obtained was left at room temperature. Fifty percent of the original water had been evaporated at the end of 24 hours, and 57% at the end of 48 hours, and 60% at the end of 72 hours, and no more or minimal evaporation of water could be detected after 72 hours. A clear gel film thus obtained contained 29% water complexed with maltobionic acid molecules. In the same manner, lactobionic acid formed a clear gel matrix with 14% water molecules and cellobionic acid formed a transparent gel with 7% water molecules.
A typical experiment to determine a gel matrix formation of an oligosaccharide aldonic acid may be carried out as follows.
Maltobionic acid 1 g in a beaker of 3.6 cm diameter and 3.6 cm height was dissolved in water 1 ml, and the solution thus obtained was left at room temperature between 20-25° C. to allow a slow evaporation of the water. […] The continuous transparent film thus obtained consisted of 71% maltobionic acid and 29% water by weight, and was formed as a complex gel matrix between maltobionic acid molecules and water molecules.

[7] = system: skin changes associated with aging; test: skin thickness of forearm by micrometer calipers after topical application; type: in vivo, human; details: twice daily, four weeks, person
Procedure: In one of the studies related to skin changes associated with aging, skin thickness was measured by micrometer calipers as follows:
The skin was grasped with a 2×6 cm metal hinge; the internal faces of which were coated with emery cloth to prevent slippage, and manually squeezed to threshold subject discomfort. Combined thickness of two whole-skin layers including thickness of the two hinge leaves was measured with micrometer calipers. Thickness of the two hinge leaves was subtracted to determine the actual thickness of two whole-skin layers. Triplicate measurements on treated sites were done and an average number was used for calculation of the skin thickness.
A subject, topically applied twice daily to their left forearm for four weeks lactobionic acid 22% in a solution prepared from water 7 parts and propylene glycol 3 parts. After four weeks their right forearm was still loose and relatively thin, and the skin was relatively rough and dry. […] While there was no change in skin thickness of their right forearm, their left forearm had increased 12% in skin thickness as measured by the micrometer calipers described in the Example.

[8] = system: chronic gum disease of bleeding; test: oral gurgling treatment of chronic gum disease; type: in vivo, human; details: 5% in molecular complex with 1% L-arginine, pH 3.3, gurgling twice daily, one week, person
Procedure: Lactobionic acid 50% aqueous solution 10 g was diluted with 60 ml water and 10 ml propylene glycol, and the solution had pH 2.1. L-Arginine 5% solution 20 g prepared from 8 parts water and 2 parts propylene glycol by volume was added to form molecular complex of amphoteric system as shown by the increase of pH to 3.3. The composition thus formulated contained 5% lactobionic acid in molecular complex with 1% L-arginine.
A subject, having chronic gum disease of bleeding during the tooth brushing, used the above bionic acid complex composition twice daily as a gurgling solution with at least one minute of contact time in oral cavity. No food or drink was taken for the next 30 minutes.

[9] = by weight, 1 g acid in 1 ml water evaporated at room temperature

O=C(O)[C@H](O)[C@@H](O)[C@H](O[C@@H]1O[C@H](CO)[C@H](O)[C@H](O)[C@H]1O)[C@H](O)CO [lactobionic acid]
healing of skin fissure ([1]; after a week, vehicle site unhealed): skin fissure healed completely
pain of skin fissure [1]: pain disappeared after a few days
colour change of hydroquinone cream [2]: did not change color
erythema of facial skin [3]: improved substantially and the erythema became less noticeable
wound healing ([4]; covered five days, end of one week, saline control not epithelialized): healed with re-epithelialization
time to disappearance of erythema ([4]; same at control site): nine
antioxidant grade ([5]; anthralin and hydroquinone test methods): moderate antioxidant
colour change of anthralin cream ([5]; oil-in-water cream, 0.4% anthralin, test substance 0.1 M, 24 hours): did not change the color
gel matrix formation ([6]; 1 g in 1 ml water, 20-25° C., slow evaporation): clear continuous gel film was formed
acid content of the gel film [6, 9]: 86%
water retained in the gel film (gel matrix) [6, 9]: 14%
increase in skin thickness ([7]; 22% in water/propylene glycol 7:3 solution, left forearm): 12%
skin condition of treated forearm ([7]; 22% solution): more firm and plump, and the skin was smooth, soft and not dry
gum bleeding during tooth brushing [8]: gum bleeding stopped or became less noticeable
